Assay results published in patent publication US7223795B2, “Modified peptide derivatives and methods of use thereof” (Cyclacel Limited, priority 2000, dated 2007).
Like-named read-outs stand apart in the source and are kept apart here.

What was measured:
Cyclophilin A = Cyclophilin A (Homo sapiens, UniProt P62937); assay: Fluorescence assay: interaction with Cyclophilin A (dissociation constant); assay type: binding; details: 20° C., read-out: Kd determined by fluorescence assay
Procedure: In each case, the binding constant was measured by means of a fluorescence assay, for example as disclosed by Husi, H. and Zurini, M. G. M. [Comparative binding studies of cyclophilins to cyclosporin-A and derivatives by fluorescence measurements, Analytical Biochemistry, 1994, 222, 251–255].
Fluorescence Assay: Interaction with Cyclophilin A
The dissociation constant (Kd) for a number of ligands has been was obtained by fluorescence measurements. Cyclophilin A has only one tryptophan, located about 8 Å from the centre of the active site making a hydrogen bond to the inhibitor cyclosporin when bound. After each addition of ligand, the portion of the protein bound is proportional to the fractional fluorescence change. Measurements were carried out using a Perkin Elmer LS50B fluorescence spectrophotometer. The experiments took place at 20° C. Constant temperature was maintained within the cuvette by a temperature control. The protein solution was equilibrated until the signal was stable. A 1.4 ml fluorescence cuvette was used (Hellma 6140F). The excitation wavelength was 280 nm and the emission wavelength was varied from 330 to 345 nm according to protein and ligand. Emission and excitation slits varied from 2.5 to 10 nm, determined by experimental parameters.
At this point the concentration of the bound ligand equals the free protein. For each ligand concentration one fluorescence value was measured, and at the same concentrations a reference emission value was taken. The difference between the two values was calculated and a new corrected value was used to determine the Kd graphically.
Cyp-A solutions of […] in 50 mMTris, 100 mM NaCl, pH=7.4 were used. Protein concentration varied according to the ligand under test.

Cyp-D Wild-type = Cyp-D Wild-type (Homo sapiens, UniProt P30405); assay: Fluorescence titration: interaction with Cyclophilin D; assay type: binding
Sequence of Cyp-D Wild-type (P30405 30-207): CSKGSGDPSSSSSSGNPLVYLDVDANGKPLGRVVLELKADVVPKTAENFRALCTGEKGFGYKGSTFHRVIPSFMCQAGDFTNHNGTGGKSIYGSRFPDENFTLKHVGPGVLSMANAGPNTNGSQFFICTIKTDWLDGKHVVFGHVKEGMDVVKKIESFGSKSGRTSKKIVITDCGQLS
Procedure: Fluorescence Assay: Interaction with Cyclophilin D
Further fluorescence titration studies were undertaken to investigate the interaction of selected compounds of the invention with cyclophilin D. The assay was carried out in accordance with the method described in Maurice R. Eftink and Camillo A. Ghiron, [Fluorescence Quenching Studies with Proteins, Analytical Biochemistry 114, 199–227 (1981)].

cyclophilin D = cyclophilin D (Homo sapiens, UniProt P30405); assay: Rotamase activity (method of Kofron et al); assay type: biochemical
Sequence of cyclophilin D (P30405 30-207): as above
Procedure: PPIase activity is assessed with the α-chymotrypsin-coupled enzymatic assay [Determination of kinetic constants for peptidyl cis-trans isomerase by an improved spectrophotometric assay (1 991); Kofron J L, Kuzmic P, Kishore V, Colon-Bonilla E and Rich D., Biochemistry 30, 6127–6134]. α-Chymotrypsin selectively hydrolyses the C-terminal p-nitroanilide bond of the substrate in the trans X-Pro conformer only. This hydrolysis releases a chromophore 4-nitroaniline, the accumulation of which is recorded by measuring the absorbance at 400 nm as a function of time. […] Substrate (stock solution of 100 mM) was dissolved in LiCl/TFE. The experiment took place at 4° C. Constant temperature was maintained within the cuvette by a Peltier (PTP-1) temperature control unit. A mini magnetic stirring system (telemoduel from Variomag)) was used for mixing the solution in the cuvette after the addition of the substrate. A Perkin Elmer UV/VIS Lambda 20 spectrophotometer was used. […]

Cyp-A = Cyp-A (Homo sapiens, UniProt P62937); assay: PPIase activity, α-chymotrypsin-coupled enzymatic assay; assay type: biochemical; details: 4° C., read-out: Kd determined by PPIase assay
Sequence of Cyp-A (P62937 whole entry): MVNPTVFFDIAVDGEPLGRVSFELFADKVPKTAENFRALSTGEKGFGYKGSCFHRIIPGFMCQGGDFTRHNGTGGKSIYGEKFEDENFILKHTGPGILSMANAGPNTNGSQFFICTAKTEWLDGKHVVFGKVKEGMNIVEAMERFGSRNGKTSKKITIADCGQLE
Procedure: PPIase activity is assessed with the α-chymotrypsin-coupled enzymatic assay [Determination of kinetic constants for peptidyl cis-trans isomerase by an improved spectrophotometric assay (1 991); Kofron J L, Kuzmic P, Kishore V, Colon-Bonilla E and Rich D., Biochemistry 30, 6127–6134]. α-Chymotrypsin selectively hydrolyses the C-terminal p-nitroanilide bond of the substrate in the trans X-Pro conformer only. This hydrolysis releases a chromophore 4-nitroaniline, the accumulation of which is recorded by measuring the absorbance at 400 nm as a function of time. […] Substrate (stock solution of 100 mM) was dissolved in LiCl/TFE. The experiment took place at 4° C. Constant temperature was maintained within the cuvette by a Peltier (PTP-1) temperature control unit. A mini magnetic stirring system (telemoduel from Variomag)) was used for mixing the solution in the cuvette after the addition of the substrate. A Perkin Elmer UV/VIS Lambda 20 spectrophotometer was used.
The following materials were used: • Substrate: […] (Bachem AG) (N-succinyl-Ala-Ala-Pro-Phe-pnitroanilide) • Proteins: Cyp-A solution was freshly prepared before the experiment from frozen stock solution, at the appropriate concentration by dilution in buffer 50 mM Hepes, 100 mM NaCl pH=8.0. α-chymotrypsin (Sigma)
In a typical experiment 90 μl of 2.5–30 nM cyclophilin was made up to 2520 μl with buffer A in a 3 ml glass cuvette. The cuvette then was preincubated for 30 min on ice. Immediately before the assay, 300 μl of chymotrypsin solution (50 mg/ml in 10 mM HCl) was added, followed by 90 μl of a 3.7 mM stock solution of Suc-Ala-Ala-Pro-PNA in LiCl (470 mM)/TFE. The reaction progress was monitored by the absorbance change at 400 nm that accompanies the hydrolysis of the amide bond and the release of 4-nitroaniline product.

cyclophilin = cyclophilin (Homo sapiens, UniProt P62937); assay: Binding studies, binding constant to cyclophilin
Sequence of cyclophilin (P62937 whole entry): as above

Sequence of Cyclophilin A (P62937 whole entry): as above

Row | SMILES | Kd (Cyclophilin A) | Kd (Cyp-D Wild-type) | Rotamase activity % Control (cyclophilin D; 50 μM) | Rotamase activity % Control (cyclophilin D; 100 μM) | Rotamase activity % Control (cyclophilin D; 200 μM) | Kd (Cyp-A) | Kd (cyclophilin; read-out: binding constant (Kd) to cyclophilin, by way of comparison) | Kd (cyclophilin)
1 | CC(C)COC(=O)OC1=CC(=O)CC(C)(C)C1 [EM 3/48/2/1] | 130 µM | – | – | – | – | – | – | –
2 | CC1(C)CC(=O)CC(=O)C1Cc1ccccc1 (stereo not drawn) [EM 5/11] | – | 170 µM | 84 % Control | 99 % Control | 71 % Control | – | – | –
3 | CC1C(=O)CC(=O)CC1(C)C (racemic) [EM 4/33/1] | – | – | – | – | – | 134 µM | – | –
4 | COC(=O)[C@@H](NC1=CC(=O)CC(C)(C)C1)C(C)C [EM 3/22/1] | > 25000 µM | 103 µM | 110 % Control | 102 % Control | 63 % Control | – | – | –
5 | CC(C)[C@H](NC(=O)OC(C)(C)C)C(=O)OC1=CC(=O)CC(C)(C)C1 [EM 3/29/1/1] | – | 362 µM | 107 % Control | 77.5 % Control | 50 % Control | – | – | –
6 | CC1(C)CC(=O)CC(=O)C1 [dimedone, reference compound] | – | – | – | – | – | – | 22000 µM | –
7 | COC(=O)CC1C(=O)CC(=O)CC1(C)C (stereo not drawn) [EM 4/35/1/1] | 45 µM | – | – | – | – | – | – | –
8 | CC1(C)CC(=O)C=C(OC(=O)[C@H](Cc2ccccc2)NC(=O)OCc2ccccc2)C1 [EM 3/26/1/2] | > 25000 µM | 154 µM | 83 % Control | 72.5 % Control | 33 % Control | – | – | –
9 | COC(=O)[C@H](Cc1ccccc1)NC(=C1C(=O)CC(C)(C)CC1=O)C(NC(=O)OCc1ccccc1)C(C)C (stereo partly drawn) [EM 2/40, N-[1-(4,4-dimethyl-2,6-dioxocyclohexylidene)-2-benzyloxycarbonylamino-3-methylbutyl]phenylalanine methyl ester] | > 25000 µM | 110 µM | 96 % Control | 100 % Control | 59 % Control | – | – | –
10 | COC(=O)[C@@H](NC(=O)OCc1ccccc1)C(C)C [EM 3/27] | – | – | 111 % Control | 96 % Control | 60 % Control | – | – | –
11 | CC1(C)CC(=O)CC(=O)C1C/C=C/c1ccccc1 (stereo not drawn) [EM 5/12/3] | 85 µM | – | – | – | – | – | – | –
12 | CC(C)[C@H](NC(=O)OCc1ccccc1)C(=O)OC1=CC(=O)C(C)C(C)(C)C1 (stereo partly drawn) [EM 4/10/1] | – | 815 µM | 78 % Control | 84.5 % Control | 60 % Control | 20 µM | – | –
13 | CC(C)C(NC(=O)OCc1ccccc1)C(O)=C1C(=O)CC(C)(C)CC1=O (stereo not drawn) [EM 3/11/1, 1-(4,4-dimethyl-2,6-dioxocyclohexylidene)-2-benzyloxycarbonylamino-3-methylbutanol] | > 25000 µM | 203 µM | 109 % Control | 102.5 % Control | 61 % Control | – | – | –
14 | CC1(C)CC(=O)C=C(N)C1 [EM 4/12/2] | – | 107 µM | 104 % Control | 106.5 % Control | 98 % Control | – | – | –
15 | CC(C)[C@H](NC(=O)OCc1ccccc1)C(=O)OC1=CC(=O)C(C)(C)C(C)(C)C1 [EM 4/21/1] | 68 µM | – | – | – | – | – | – | –
16 | CC(C)[C@H](NC(=O)OCc1ccccc1)C(=O)OC1=CC(=O)CC(C)(C)C1 [EM 2/34, 3-(N-benzyloxycarbonyl-L-valinyloxy)-5,5-dimethyl-2-cyclohexen-1-one] | – | 347 µM | 81 % Control | 80 % Control | 33 % Control | 23 µM | – | ~1 µM
17 | COC(=O)N[C@H](C(=O)OC1=CC(=O)CC(C)(C)C1)C(C)C [EM 4/18/1] | 70 µM | – | – | – | – | – | – | –
18 | CC(C)C[C@H](NC(=O)OCc1ccccc1)C(=O)OC1=CC(=O)CC(C)(C)C1 [EM 3/26/2/5, 3-(N-benzyloxycarbonyl-L-leucinyloxy)-5,5-dimethyl-2-cyclohexen-1-one] | – | 116 µM | 79 % Control | 78 % Control | 52 % Control | – | – | –
